Data reported in patent US5973005A, “Aqueous creatine solution and process of producing a stable, bioavailable aqueous creatine solution” (priority 1998, dated 1999).
Entries after “also recorded” stand apart in the source; their conditions may differ.

Legend:
[1] = system: adenosine triphosphate resynthesis; details: in muscle, creatine phosphate versus glycogen; cited from earlier work
[2] = endogenous level; cited from earlier work
[3] = acidic conditions / stomach; cited from earlier work
[4] = physchem; details: weakly alkaline water
Method: A 1 ml sample was analyzed by HPLC using a Shimadzu LC-10AD Liquid Chromatograph. The operating parameters are as follows:
The operating parameters are as follows:

Structure (SMILES): CN(CC(=O)O)C(=N)NP(=O)(O)O [Creatine phosphate]
- rate of ATP resynthesis compared to glycogen [1]: nearly twice the rate

Structure (SMILES): CN(CC(=O)O)C(=N)N [creatine, N-(aminoiminomethyl)-N-methylglycine]
- creatine remaining, by HPLC (slightly alkaline water): about 85%
- creatinine produced, by HPLC (weakly alkaline water): about 15%
- normal creatine concentration in the bloodstream [2]: about 50 μmol per liter of blood
- conversion to creatinine under acidic conditions [3]: formation of creatinine from free creatine is complete; also recorded: rapidly converts to creatinine by the acidic conditions in the stomach
- degraded [4]: ~15%
